Reference: US12350270B2, “Antimalarial agents” (Merck Sharp & Dohme LLC, priority 2019, dated 2025)

What follows are molecules tested on parasites (ring stage, in human red blood cell culture) (assay: Parasite LDH growth assay (antiparasite potency, Parasite Assay)). Details: Plasmodium falciparum, Erythrocyte, 72 h, 0.7% rings, 2% haematocrit, 72 hours at 37° C., LDH readout of parasite growth.
Format: cell-based, Plasmodium falciparum
Outline: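 Growth was read by an LDH assay after a freeze–thaw cycle (−80 °C overnight, 4 h thaw at RT). Before that, parasites grew with compound for 72 h at 37 °C under gassed, humidified conditions. The input was a ring-stage culture adjusted to 0.7% parasitemia and 2% haematocrit in serum (5%)/albumax (0.5%)-supplemented RPMI-Hepes.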
Molecule `CC1(C)CC(=O)N([C@H]2CCS(=O)(=O)c3ccc(C(=O)N[C@H]4CC(C)(C)Oc5ccccc54)cc32)C(=N)N1` [Example 221, (4S)-N-[(4S)-2,2-dimethylchroman-4-yl]-4-(2-imino-4,4-dimethyl-6-oxo-hexahydropyrimidin-1-yl)-1,1-dioxo-3,4-dihydro-2H-thiochromene-6-carboxamide] has an EC50 of 190 nM.
Work on `CCC1(CC)CC(=O)N([C@@H]2CCS(=O)(=O)c3ccc(C(=O)N[C@@H]4c5ccccc5C[C@H]4O)cc32)C(=N)N1` [Example 222, (4R)-4-(4,4-diethyl-2-imino-6-oxo-hexahydropyrimidin-1-yl)-N-[(1R,2R)-2-hydroxyindan-1-yl]-1,1-dioxo-3,4-dihydro-2H-thiochromene-6-carboxamide] yielded an EC50 of 15.6 nM.
Work on `CCC1(CC)CC(=O)N([C@H]2CCS(=O)(=O)c3ccc(C(=O)N[C@@H]4c5ccccc5C[C@H]4O)cc32)C(=N)N1` [Example 223, (4S)-4-(4,4-diethyl-2-imino-6-oxo-hexahydropyrimidin-1-yl)-N-[(1R,2R)-2-hydroxyindan-1-yl]-1,1-dioxo-3,4-dihydro-2H-thiochromene-6-carboxamide] yielded an EC50 of 300 nM.
`CC[C@]1(C)CC(=O)N([C@@H]2CCOc3ccc(C(=O)N[C@@H]4c5cc(F)ccc5OC(C)(C)[C@H]4O)cc32)C(=N)N1` [Example 224, (4R)-4-[(4R)-4-ethyl-2-imino-4-methyl-6-oxo-hexahydropyrimidin-1-yl]-N-[(3S,4R)-6-fluoro-3-hydroxy-2,2-dimethyl-chroman-4-yl]chromane-6-carboxamide] gave an EC50 of 0.3 nM.
Molecule `CC[C@@]1(C)CC(=O)N([C@@H]2CCOc3ccc(C(=O)N[C@@H]4c5cc(F)ccc5OC(C)(C)[C@H]4O)cc32)C(=N)N1` [Example 225, (4R)-4-[(4S)-4-ethyl-2-imino-4-methyl-6-oxo-hexahydropyrimidin-1-yl]-N-[(3S,4R)-6-fluoro-3-hydroxy-2,2-dimethyl-chroman-4-yl]chromane-6-carboxamide] has an EC50 of 0.8 nM.
`CCC1(CC)CC(=O)N([C@@H]2CCOc3ccc(C(=O)NC4c5ccccc5C(F)(F)C4(C)C)cc32)C(=N)N1` (stereo partly drawn) [Example 227, (4R)-4-(4,4-diethyl-2-imino-6-oxo-hexahydropyrimidin-1-yl)-N-(3,3-difluoro-2,2-dimethyl-indan-1-yl)chromane-6-carboxamide] showed an EC50 of 1.3 nM.
Molecule `CC1(C)CC(=O)N(C2CCS(=O)(=O)c3ccc(C(=O)N[C@@H]4c5ccccc5OC[C@@]4(C)O)cc32)C(=N)N1` (stereo partly drawn) [Example 228, N-[(3S,4R)-3-hydroxy-3-methyl-chroman-4-yl]-4-(2-imino-4,4-dimethyl-6-oxo-hexahydropyrimidin-1-yl)-1,1-dioxo-3,4-dihydro-2H-thiochromene-6-carboxamide] has an EC50 of 282 nM.
Work on `CC1(C)CC(=O)N(C2CCS(=O)(=O)c3ccc(C(=O)N[C@@H]4c5ccccc5OC[C@]4(C)O)cc32)C(=N)N1` (stereo partly drawn) [Example 229, N-[(3R,4R)-3-hydroxy-3-methyl-chroman-4-yl]-4-(2-imino-4,4-dimethyl-6-oxo-hexahydropyrimidin-1-yl)-1,1-dioxo-3,4-dihydro-2H-thiochromene-6-carboxamide] yielded an EC50 of 59.3 nM.
For `CC[C@]1(C)CC(=O)N([C@@H]2CCOc3ccc(C(=O)N[C@@H]4c5cc(Cl)ccc5OC[C@@]4(C)O)cc32)C(=N)N1` [Example 230, (4R)-N-[(3S,4R)-6-chloro-3-hydroxy-3-methyl-chroman-4-yl]-4-[(4R)-4-ethyl-2-imino-4-methyl-6-oxo-hexahydropyimidin-1-yl]chromane-6-carboxamide], the EC50 was 2.7 nM.
Work on `CCC1(CC)CC(=O)N([C@@H]2CCOc3ccc(C(=O)N[C@@H]4c5cc(Cl)ccc5OC[C@H]4O)cc32)C(=N)N1` [Example 231, (4R)-N-[(3S,4R)-6-chloro-3-hydroxy-chroman-4-yl]-4-(4,4-diethyl-2-imino-6-oxo-hexahydropyrimidin-1-yl)chromane-6-carboxamide] yielded an EC50 of 7.4 nM.
`CC[C@]1(C)CC(=O)N([C@H]2c3cc(C(=O)N[C@@H]4c5ccccc5C(F)(F)[C@H]4O)ccc3OC[C@@H]2OC)C(=N)N1` [Example 232, (3R,4S)-N-[(1R,2S)-3,3-difluoro-2-hydroxy-indan-1-yl]-4-[(4R)-4-ethyl-2-imino-4-methyl-6-oxo-hexahydropyrimidin-1-yl]-3-methoxy-chromane-6-carboxamide] was tested, and the EC50 was 21.8 nM.
For `CCC1(CC)CC(=O)N([C@@H]2CCOc3ccc(C(=O)NC(CC4CCCCC4)c4ccccc4)cc32)C(=N)N1` (stereo partly drawn) [Example 233, (4R)-N-(2-cyclohexyl-1-phenyl-ethyl)-4-(4,4-diethyl-2-imino-6-oxo-hexahydropyrimidin-1-yl)chromane-6-carboxamide], the EC50 was 7.9 nM.
Molecule `CCC1(CC)CC(=O)N([C@H]2c3cc(C(=O)N[C@@H]4c5ccccc5C[C@@]4(C)O)ccc3OC[C@H]2COC)C(=N)N1` [Example 235, (3R,4R)-4-(4,4-diethyl-2-imino-6-oxo-hexahydropyrimidin-1-yl)-N-[(1R,2R)-2-hydroxy-2-methyl-indan-1-yl]-3-(methoxymethyl)chromane-6-carboxamide] has an EC50 of 0.7 nM.
`CCC1(CC)CC(=O)N([C@@H]2C[C@@H](OC)c3ccc(C(=O)N[C@@H]4c5ccccc5OC(C)(C)[C@H]4O)cc32)C(=N)N1` [Example 236, (1R,3R)-3-(4,4-diethyl-2-imino-6-oxo-hexahydropyrimidin-1-yl)-N-[(3S,4R)-3-hydroxy-2,2-dimethyl-chroman-4-yl]-1-methoxy-indane-5-carboxamide] gave an EC50 of 0.9 nM.
`CCC1(CC)CC(=O)N([C@H]2C[C@H](OC)c3ccc(C(=O)N[C@@H]4c5ccccc5OC(C)(C)[C@H]4O)cc32)C(=N)N1` [Example 237, (1S,3S)-3-(4,4-diethyl-2-imino-6-oxo-hexahydropyrimidin-1-yl)-N-[(3S,4R)-3-hydroxy-2,2-dimethyl-chroman-4-yl]-1-methoxy-indane-5-carboxamide] was tested, and the EC50 was 240 nM.
With `CCC1(CC)CC(=O)N([C@H]2C[C@@H](OC)c3ccc(C(=O)N[C@@H]4c5ccccc5OC(C)(C)[C@H]4O)cc32)C(=N)N1` [Example 238, (1R,3S)-3-(4,4-diethyl-2-imino-6-oxo-hexahydropyrimidin-1-yl)-N-[(3S,4R)-3-hydroxy-2,2-dimethyl-chroman-4-yl]-1-methoxy-indane-5-carboxamide] the EC50 was 47.8 nM.
Molecule `CCC1(CC)CC(=O)N([C@@H]2C[C@H](OC)c3ccc(C(=O)N[C@@H]4c5ccccc5OC(C)(C)[C@H]4O)cc32)C(=N)N1` [Example 239, (1S,3R)-3-(4,4-diethyl-2-imino-6-oxo-hexahydropyrimidin-1-yl)-N-[(3S,4R)-3-hydroxy-2,2-dimethyl-chroman-4-yl]-1-methoxy-indane-5-carboxamide] has an EC50 of 0.9 nM.
Molecule `CCC1(CC)CC(=O)N([C@H]2c3cc(C(=O)N[C@@H]4c5ccccc5OC(C)(C)[C@H]4O)ccc3OC[C@@H]2C)C(=N)N1` [Example 240, (3R,4R)-4-(4,4-diethyl-2-imino-6-oxo-hexahydropyrimidin-1-yl)-N-[(3S,4R)-3-hydroxy-2,2-dimethyl-chroman-4-yl]-3-methyl-chromane-6-carboxamide] has an EC50 of 0.6 nM.
Work on `CCC1(CC)CC(=O)N([C@H]2c3cc(C(=O)N[C@@H]4c5ccccc5OC(C)(C)[C@H]4O)ccc3OC[C@H]2C)C(=N)N1` [Example 241, (3S,4R)-4-(4,4-diethyl-2-imino-6-oxo-hexahydropyrimidin-1-yl)-N-[(3S,4R)-3-hydroxy-2,2-dimethyl-chroman-4-yl]-3-methyl-chromane-6-carboxamide] yielded an EC50 of 0.4 nM.
`CC[C@]1(C)CC(=O)N(C2c3cc(C(=O)N[C@@H]4c5ccccc5OC(C)(C)[C@H]4O)ccc3OCC2(C)C)C(=N)N1` (stereo partly drawn) [Example 243, 4-[(4R)-4-ethyl-2-imino-4-methyl-6-oxo-hexahydropyrimidin-1-yl]-N-[(3S,4R)-3-hydroxy-2,2-dimethyl-chroman-4-yl]-3,3-dimethyl-chromane-6-carboxamide] was tested, and the EC50 was 6.1 nM.
In the case of `CCC1(CC)CC(=O)N(C2c3cc(C(=O)N[C@@H]4c5ccccc5C[C@H]4O)ccc3OCC2(C)COC)C(=N)N1` (stereo partly drawn) [Example 244, 4-(4,4-diethyl-2-imino-6-oxo-hexahydropyrimidin-1-yl)-N-[(1R,2R)-2-hydroxyindan-1-yl]-3-(methoxymethyl)-3-methyl-chromane-6-carboxamide], the EC50 is reported as 7.8 nM.
With `CCC1(CC)CC(=O)N([C@H]2c3cc(C(=O)N[C@@H]4c5ccccc5OC(C)(C)[C@H]4O)ccc3OC2(C)C)C(=N)N1` [Example 245, (3S)-3-(4,4-diethyl-2-imino-6-oxo-hexahydropyrimidin-1-yl)-N-[(3S,4R)-3-hydroxy-2,2-dimethyl-chroman-4-yl]-2,2-dimethyl-3H-benzofuran-5-carboxamide] the EC50 was 0.8 nM.
For `CCC1(CC)CC(=O)N([C@@H]2C[C@@H](C)Oc3ccc(C(=O)N[C@@H]4c5ccccc5OC(C)(C)[C@H]4O)cc32)C(=N)N1` [Example 246, (2R,4R)-4-(4,4-diethyl-2-imino-6-oxo-hexahydropyrimidin-1-yl)-N-[(3S,4R)-3-hydroxy-2,2-dimethyl-chroman-4-yl]-2-methyl-chromane-6-carboxamide], the EC50 was 2 nM.
`CCC1(CC)CC(=O)N([C@H]2c3cc(C(=O)N[C@@H]4c5ccccc5OC[C@@]4(C)O)ccc3CC[C@@H]2OC)C(=N)N1` [Example 247, (3S,4S)-4-(4,4-diethyl-2-imino-6-oxo-hexahydropyrimidin-1-yl)-N-[(3S,4R)-3-hydroxy-3-methyl-chroman-4-yl]-3-methoxy-tetralin-6-carboxamide] gave an EC50 of 4.5 nM.
Molecule `CCC1(CC)CC(=O)N([C@@H]2CCCOc3ccc(C(=O)N[C@@H]4c5ccccc5OC(C)(C)[C@H]4O)cc32)C(=N)N1` [Example 248, (5R)-5-(4,4-diethyl-2-imino-6-oxo-hexahydropyrimidin-1-yl)-N-[(3S,4R)-3-hydroxy-2,2-dimethyl-chroman-4-yl]-2,3,4,5-tetrahydro-1-benzoxepine-7-carboxamide] has an EC50 of 0.8 nM.
